Data from patent US10590086B2, “Pharmaceutical compound” (IOmet Pharma Ltd., priority 2014, dated 2020).

Legend:
IDO [1] = biological target: T1, IDO (Homo sapiens, UniProt P14902); assay: SKOV3 kynurenine cell-based assay (IDO induced by IFN-γ); set-up: IDO expression was induced in the SKOV3 cells by the addition of 500 ng/ml IFN-γ; endogenous in cells; host or cells: SKOV3 (human ovarian adenocarcinoma), induced with IFN-γ; conditions: 48 hours, read-out: SKOV3 Kynurenine cell based assay pIC50 (converted)
T1 sequence (P14902 whole entry): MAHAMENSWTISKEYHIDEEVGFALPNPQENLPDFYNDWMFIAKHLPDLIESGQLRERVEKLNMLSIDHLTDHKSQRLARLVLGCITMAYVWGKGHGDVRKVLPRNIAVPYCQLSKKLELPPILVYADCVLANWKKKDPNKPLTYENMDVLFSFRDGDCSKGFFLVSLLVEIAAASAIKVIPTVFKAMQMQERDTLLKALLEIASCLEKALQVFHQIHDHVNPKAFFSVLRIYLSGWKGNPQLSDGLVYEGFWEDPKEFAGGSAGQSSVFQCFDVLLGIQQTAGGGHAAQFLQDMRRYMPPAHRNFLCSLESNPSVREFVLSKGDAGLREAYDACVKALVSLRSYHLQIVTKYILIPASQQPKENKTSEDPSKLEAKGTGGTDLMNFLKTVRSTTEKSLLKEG
Method in brief: (§1)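 Cellular kynurenine production, TDO via A172 glioblastoma and IDO via IFN-γ-stimulated SKOV3 ovarian adenocarcinoma cells, was quantified after 48 hours' compound treatment in 500 μM L-tryptophan medium, using Erhlich's reagent and absorbance at 490 nm.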

TDO [2] = biological target: T2, TDO (Homo sapiens, UniProt P48775); assay: hTDO biochemical coupled assay; conditions: 330 μM L-tryptophan, read-out: hTDO biochemical assay pIC50 (converted)
T2 sequence (P48775 whole entry): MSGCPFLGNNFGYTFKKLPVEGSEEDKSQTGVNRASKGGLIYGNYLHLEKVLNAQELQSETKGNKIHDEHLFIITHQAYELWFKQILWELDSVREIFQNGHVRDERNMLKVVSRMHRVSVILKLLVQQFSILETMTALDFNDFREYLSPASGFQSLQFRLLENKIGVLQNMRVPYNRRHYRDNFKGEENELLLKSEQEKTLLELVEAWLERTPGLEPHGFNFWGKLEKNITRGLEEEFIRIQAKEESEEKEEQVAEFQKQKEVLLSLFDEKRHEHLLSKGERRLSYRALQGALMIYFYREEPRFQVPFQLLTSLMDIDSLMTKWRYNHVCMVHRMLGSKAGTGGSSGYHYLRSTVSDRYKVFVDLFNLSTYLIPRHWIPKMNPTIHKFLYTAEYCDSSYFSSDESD

IDO [3] = biological target: T1, IDO; assay: hIDO biochemical coupled assay; conditions: 45 μM L-tryptophan, read-out: hIDO biochemical assay pIC50 (converted)
TDO [4] = biological target: T2, TDO; assay: A172 kynurenine cell-based assay; set-up: This assay utilised cancer cells which expressed either TDO or IDO; endogenous in cells; host or cells: A172 (human glioblastoma); conditions: A172 human glioblastoma cells, 48 hours, read-out: A172 Kynurenine cell based assay pIC50 (converted)
Method in brief: as §1

[5] = SKOV3 human ovarian adenocarcinoma cells, 500 ng/ml IFN-γ, 500 μM L-tryptophan

SMILES	IC50 (IDO [1]; [5]) [µM]	IC50 (TDO [2]; 17 minutes, room temperature) [µM]	IC50 (IDO [3]; 17 minutes, room temperature) [µM]	IC50 (TDO [4]; 500 μM L-tryptophan) [µM]	IC50 (IDO [1]; SKOV3 cells, IDO induced by 500 ng/ml IFN-γ) [µM]	IC50 (TDO [2]) [µM]	IC50 (IDO [3]) [µM]	IC50 (TDO [4]) [µM]
COCCS(=O)(=O)N1CCC(c2cc(Cl)cc3[nH]ncc23)CC1 [Compound 228]	3.24 to 31.6	< 3.16	3.24 to 31.6	< 3.16	–	–	–	–
CS(=O)(=O)c1ccc(Oc2cc(Cl)cc3[nH]ncc23)cc1 [Compound 368]	3.24 to 31.6	3.24 to 31.6	> 100	3.24 to 31.6	–	–	–	–
Cc1nc2c([nH]1)CN(c1cc(C(F)(F)F)cc3[nH]ncc13)CC2 [Compound 212]	32.4 to 100	< 3.16	> 100	< 3.16	–	–	–	–
CS(=O)(=O)c1ccc(-c2cc(Cl)cc3[nH]ncc23)cc1F [Compound 265]	3.24 to 31.6	< 3.16	3.24 to 31.6	< 3.16	–	–	–	–
CCS(=O)(=O)N1CCC(c2cc(Cl)cc3[nH]ncc23)CC1 [Compound 423]	3.24 to 31.6	< 3.16	< 3.16	< 3.16	–	–	–	–
CS(=O)(=O)N1CCN(c2cc(C(F)(F)F)cc3[nH]ncc23)C2CCCCC21 (single isomer, unassigned) [Compound 415]	> 100	3.24 to 31.6	> 100	3.24 to 31.6	–	–	–	–
CS(=O)(=O)N1CCOC2(CCN(c3cc(Cl)cc4[nH]ncc34)CC2)C1 [Compound 398]	> 100	< 3.16	> 100	< 3.16	–	–	–	–
CS(=O)(=O)NCCN1C(=O)NC2(CCN(c3cc(Cl)cc4[nH]ncc34)CC2)C1=O [Compound 416]	3.24 to 31.6	< 3.16	< 3.16	< 3.16	–	–	–	–
CS(=O)(=O)N1CCC(c2cc(C3CCOCC3)cc3[nH]ncc23)CC1 [Compound 325]	32.4 to 100	> 100	> 100	32.4 to 100	–	–	–	–
O=S(=O)(C1CCCC1)N1CCN(c2cccc3[nH]ncc23)CC1 [Compound 17]	32.4 to 100	3.24 to 31.6	> 100	3.24 to 31.6	–	–	–	–
CS(=O)(=O)N1CCN(c2cc(Cl)cc3[nH]ncc23)C2CCCCC21 (single isomer, unassigned) [Compound 385]	32.4 to 100	> 100	> 100	32.4 to 100	–	–	–	–
CS(=O)(=O)N1CCN(c2cc(Cl)cc3[nH]ncc23)C2CCCCC21 (racemic) [Compound 341]	32.4 to 100	> 100	> 100	3.24 to 31.6	–	–	–	–
CC1(C)CN(c2cc(OC(F)(F)F)cc3[nH]ncc23)CCN1S(C)(=O)=O [Compound 219]	3.24 to 31.6	< 3.16	3.24 to 31.6	< 3.16	–	–	–	–
Cc1cc(C2CCN(S(C)(=O)=O)CC2)c2cn[nH]c2c1 [Compound 30]	3.24 to 31.6	< 3.16	< 3.16	< 3.16	–	–	–	–
CC(=O)N(C)c1cc(N2CCN(S(C)(=O)=O)C(C)(C)C2)c2cn[nH]c2c1 [Compound 311]	3.24 to 31.6	32.4 to 100	> 100	3.24 to 31.6	–	–	–	–
CS(=O)(=O)N1C2COCC1CN(c1cc(Cl)cc3[nH]ncc13)C2 [Compound 314]	32.4 to 100	< 3.16	32.4 to 100	< 3.16	–	–	–	–
Cn1cc(-c2cc(Cl)cc3[nH]ncc23)cn1 [Compound 366]	3.24 to 31.6	3.24 to 31.6	> 100	< 3.16	–	–	–	–
CC(=O)Nc1ccc(-c2cc(Cl)cc3[nH]ncc23)cc1 [Compound 246]	3.24 to 31.6	< 3.16	> 100	< 3.16	–	–	–	–
CN1C(=O)[C@@H]2CC[C@H]1CN(c1cc(C(F)(F)F)cc3[nH]ncc13)C2 [Compound 447]	> 100	< 3.16	3.24 to 31.6	< 3.16	–	–	–	–

The remaining lines, values ahead:

IC50 (IDO [1]; [5]) [µM]	IC50 (TDO [2]; 17 minutes, room temperature) [µM]	IC50 (IDO [3]; 17 minutes, room temperature) [µM]	IC50 (TDO [4]; 500 μM L-tryptophan) [µM]	IC50 (IDO [1]; SKOV3 cells, IDO induced by 500 ng/ml IFN-γ) [µM]	IC50 (TDO [2]) [µM]	IC50 (IDO [3]) [µM]	IC50 (TDO [4]) [µM]	SMILES
< 3.16	< 3.16	< 3.16	< 3.16	–	–	–	–	O=C1NC2(CCN(c3cc(Cl)cc4[nH]ncc34)CC2)C(=O)N1CCO [Compound 330]
3.24 to 31.6	3.24 to 31.6	> 100	3.24 to 31.6	–	–	–	–	Clc1cc(N2CCOCC2)c2cn[nH]c2c1 [Compound 327]
3.24 to 31.6	< 3.16	3.24 to 31.6	3.24 to 31.6	–	–	–	–	CNC(=O)C1CCN(c2cc(Cl)cc3[nH]ncc23)C1 (centres unmarked) [Compound 298]
> 100	3.24 to 31.6	> 100	3.24 to 31.6	–	–	–	–	O=C1CN(c2cc(Cl)cc3[nH]ncc23)CCN1 [Compound 318]
< 3.16	< 3.16	> 100	< 3.16	–	–	–	–	CC(=O)NCC1(C)CN(c2cc(Cl)cc3[nH]ncc23)C1 [Compound 446]
3.24 to 31.6	< 3.16	3.24 to 31.6	< 3.16	–	–	–	–	O=C1CC2(CCN(c3cc(Cl)cc4[nH]ncc34)CC2)CN1 [Compound 280]
3.24 to 31.6	< 3.16	3.24 to 31.6	< 3.16	–	–	–	–	O=C1NCC2(CCN(c3cc(Cl)cc4[nH]ncc34)CC2)N1 [Compound 267]
3.24 to 31.6	< 3.16	> 100	< 3.16	–	–	–	–	CNC(=O)CC1CCN(c2cc(Cl)cc3[nH]ncc23)CC1 [Compound 364]
3.24 to 31.6	< 3.16	< 3.16	< 3.16	–	–	–	–	Clc1cc(N2CCC(n3cccn3)CC2)c2cn[nH]c2c1 [Compound 339]
< 3.16	< 3.16	< 3.16	< 3.16	0.145	0.24	0.347	0.0759	CC1(C)CN(c2cc(Cl)cc3[nH]ncc23)CCC12NC(=O)NC2=O (centres unmarked) [Compound 424, 8-(6-chloro-1H-indazol-4-yl)-6,6-dimethyl-1,3,8-triazaspiro[4.5]decane-2,4-dione]
3.24 to 31.6	< 3.16	3.24 to 31.6	< 3.16	–	–	–	–	Clc1cc(N2CCC(c3nccs3)CC2)c2cn[nH]c2c1 [Compound 313]
3.24 to 31.6	< 3.16	32.4 to 100	< 3.16	–	–	–	–	CNC(=O)NC1CCN(c2cc(Cl)cc3[nH]ncc23)CC1 [Compound 377]
3.24 to 31.6	< 3.16	3.24 to 31.6	< 3.16	–	–	–	–	O=C1NCC2(CCN(c3cc(Cl)cc4[nH]ncc34)CC2)O1 [Compound 344]
3.24 to 31.6	< 3.16	32.4 to 100	< 3.16	–	–	–	–	CC(=O)NC1CCN(c2cc(Cl)cc3[nH]ncc23)CC1 [Compound 250]
3.24 to 31.6	< 3.16	> 100	< 3.16	–	–	–	–	Cc1nn(C)c2c1CN(c1cc(Cl)cc3[nH]ncc13)CC2 [Compound 376]
